For series [1], the target named is T1, Solute carrier organic anion transporter family member 1B1 (Homo sapiens, UniProt Q9Y6L6).
T1 sequence (Q9Y6L6 whole entry): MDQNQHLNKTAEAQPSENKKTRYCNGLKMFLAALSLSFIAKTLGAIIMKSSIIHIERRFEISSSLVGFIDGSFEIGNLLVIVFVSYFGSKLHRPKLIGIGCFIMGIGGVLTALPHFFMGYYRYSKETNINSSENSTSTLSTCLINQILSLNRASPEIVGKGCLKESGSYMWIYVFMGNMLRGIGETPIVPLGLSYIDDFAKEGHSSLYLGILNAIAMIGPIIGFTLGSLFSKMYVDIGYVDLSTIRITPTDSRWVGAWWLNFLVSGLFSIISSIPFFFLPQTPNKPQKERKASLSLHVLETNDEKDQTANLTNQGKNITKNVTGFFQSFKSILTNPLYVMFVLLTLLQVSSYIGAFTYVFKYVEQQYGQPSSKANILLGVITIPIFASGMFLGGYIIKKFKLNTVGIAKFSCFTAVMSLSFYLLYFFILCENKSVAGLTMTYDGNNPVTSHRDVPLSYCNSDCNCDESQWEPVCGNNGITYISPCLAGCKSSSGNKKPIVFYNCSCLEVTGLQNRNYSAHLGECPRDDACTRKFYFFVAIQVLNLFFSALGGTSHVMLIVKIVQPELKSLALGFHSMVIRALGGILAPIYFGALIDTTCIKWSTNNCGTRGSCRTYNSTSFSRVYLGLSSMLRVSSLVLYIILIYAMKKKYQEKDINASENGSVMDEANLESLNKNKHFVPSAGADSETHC
The conditions noted are these: chinese hamster, cho, 10 µM.

The target in series [2] is T2, Solute carrier organic anion transporter family member 1B3 (Homo sapiens, UniProt Q9NPD5).
T2 sequence (Q9NPD5 whole entry): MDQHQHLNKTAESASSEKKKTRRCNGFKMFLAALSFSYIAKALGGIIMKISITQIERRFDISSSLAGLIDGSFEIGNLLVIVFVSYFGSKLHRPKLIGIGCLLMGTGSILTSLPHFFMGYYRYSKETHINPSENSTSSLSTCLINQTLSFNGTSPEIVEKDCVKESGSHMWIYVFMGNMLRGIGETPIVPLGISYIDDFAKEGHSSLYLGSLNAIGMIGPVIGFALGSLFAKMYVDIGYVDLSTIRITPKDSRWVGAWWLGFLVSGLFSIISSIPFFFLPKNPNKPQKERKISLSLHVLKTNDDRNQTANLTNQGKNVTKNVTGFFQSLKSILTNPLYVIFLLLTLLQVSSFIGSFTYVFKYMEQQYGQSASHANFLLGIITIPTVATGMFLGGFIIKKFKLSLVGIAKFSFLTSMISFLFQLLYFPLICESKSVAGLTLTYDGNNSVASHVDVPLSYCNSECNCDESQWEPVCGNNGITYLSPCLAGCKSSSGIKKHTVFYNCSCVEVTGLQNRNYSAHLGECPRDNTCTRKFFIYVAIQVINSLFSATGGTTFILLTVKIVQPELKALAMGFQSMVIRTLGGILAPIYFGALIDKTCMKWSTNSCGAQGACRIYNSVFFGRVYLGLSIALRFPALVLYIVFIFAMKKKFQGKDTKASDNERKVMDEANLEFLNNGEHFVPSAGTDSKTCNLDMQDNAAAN
The conditions noted are these: chinese hamster, cho, 10 µM.

Where “and” joins values, the source holds several entries; their conditions need not be identical. Identical values can stand only once.

As for `COc1cc2c(cc1-c1coc3c4c(c(OC)cc3c1=O)OC(C)(C)C=C4)OCO2` [ICHTHYNONE], the values for the residual activity in series [1] and in series [2] were 105.6% and 118.8%, respectively.
The corresponding values for `O=[N+]([O-])NC1=NCCN1Cc1ccc(Cl)nc1` [IMIDACLOPRID] are 73.94% and 90.03%.
For `CN(C)CCCN1c2ccccc2CCc2ccccc21.Cl` [IMIPRAMINE HYDROCHLORIDE] the same measures were 61.55% and 92.77%.
The corresponding values for `CC1Cc2ccccc2N1NC(=O)c1ccc(Cl)c(S(N)(=O)=O)c1` (stereo not drawn) [INDAPAMIDE] are 80.06% and 97.5%.
As to `O=C(O)c1cc2ccccc2[nH]1` [INDOLE-2-CARBOXYLIC ACID], the residual activity in series [1] worked out at 121.4%; in series [2] it was 117.8%.
On to `OCc1c[nH]c2ccccc12` [INDOLE-3-CARBINOL], for which the residual activity is on record as 88.32% in series [1] and 121.9% in series [2].
For the compound `COc1ccc2c(c1)c(CC(=O)O)c(C)n2C(=O)c1ccc(Cl)cc1` [INDOMETHACIN], the values for the residual activity in series [1] and in series [2] were 97.38% and 50.32%, respectively.
In the case of `CC(C(=O)O)c1ccc(N2Cc3ccccc3C2=O)cc1` (stereo not drawn) [INDOPROFEN], the figures for the residual activity in series [1] and in series [2] were 97.2% and 96.18%, respectively.
The corresponding values for `OC[C@H]1O[C@@H](n2cnc3c(O)ncnc32)[C@H](O)[C@@H]1O` [INOSINE] are 110.7% and 107.3%.
On to `O=C(CCCCC(=O)Nc1c(I)cc(I)c(C(=O)O)c1I)Nc1c(I)cc(I)c(C(=O)O)c1I` [IODIPAMIDE], for which the residual activity in series [1] is 90.55%; in series [2], 60.87%.
For `Oc1c(I)cc(I)c2cccnc12` [IODOQUINOL] the same measures were 86.7% and 87.46%.
Consider `CCC(Cc1c(I)cc(I)c(N)c1I)C(=O)O` (stereo not drawn) [IOPANOIC ACID], for which the residual activity in series [1] turned out to be 31.11%; in series [2], 59.57%.
For `CC(C)Oc1ccc2c(=O)c(-c3ccccc3)coc2c1` [IPRIFLAVONE], the residual activity in series [1] is 137.7%; in series [2], 84.86%.
The corresponding values for `CC(C)NNC(=O)c1ccncc1.O=S(=O)(O)O` [IPRONIAZID SULFATE] are 122.7% and 101.8%.
For `CCCCC1=NC2(CCCC2)C(=O)N1Cc1ccc(-c2ccccc2-c2nnn[nH]2)cc1` [IRBESARTAN] the same measures were 76.05% and 47.18%.
As to `COc1c(O)cc(O)cc1O` [IRETOL], the values for the residual activity in series [1] and in series [2] were 89.16% and 111.8%, respectively.
In the case of `COc1cc(-c2coc3cc(O[C@@H]4O[C@H](CO)[C@@H](O)[C@H](O)[C@H]4O)c(OC)c(O)c3c2=O)cc(O)c1OC` [IRIDIN], the residual activity in series [1] is listed as 114.5%; in series [2] it was 90.79%.
For the compound `COc1cc(-c2coc3cc(OC)c(OC)c(OC)c3c2=O)cc(OC)c1OC` [IRIGENIN TRIMETHYL ETHER], the residual activity in series [1] was found to be 216.2%; in series [2] it was 91.27%.
For `COc1cc(-c2coc3cc(OCc4ccccc4)c(OC)c(O)c3c2=O)cc(O)c1OC` [IRIGENIN, 7-BENZYL ETHER] the same measures were 60.69% and 36.98%.
The corresponding values for `COc1cc(-c2coc3cc(OCc4ccccc4)c(OC)c(O)c3c2=O)cc(OCc2ccccc2)c1OC` [IRIGENIN, DIBENZYL ETHER] are 92.09% and 93.33%.
The corresponding values for `O=c1c(-c2cc(O)c(O)c(O)c2)coc2cc(O)c(O)c(O)c12` [IRIGENOL] are 71.59% and 92.26%.
Take `CC(=O)Oc1cc(-c2coc3cc(OC(C)=O)c(OC(C)=O)c(OC(C)=O)c3c2=O)cc(OC(C)=O)c1OC(C)=O` [IRIGINOL HEXAACEATATE]: the residual activity in series [1] was 102.1%; in series [2] it was 94.12%.
For `COc1cc2occc2c2oc(=O)ccc12` [ISOBERGAPTENE] the same measures were 127.3% and 113.9%.
With `CC(C)Cn1c(=O)n(C)c(=O)c2[nH]cnc21` [ISOBUTYLMETHYLXANTHINE], the residual activity in series [1] is 102.2% and 126.3%; in series [2] it was 85.37% and 74.61%.
In the case of `COc1ccc2c(c1O)-c1c(OC)c(OC)cc3c1[C@H](C2)N(C)CC3` [ISOCORYDINE], the residual activity in series [1] is 115.2%; in series [2], 102.1%.
For `Cc1cc(=O)c2c(O)cc(O)c(C)c2o1` [ISOEUGENITOL] the same measures were 129.2% and 101%.
The corresponding values for `COc1ccc(-c2cc(=O)c3c(O)cc(O)c(-c4cc(-c5cc(=O)c6c(O)cc(O)cc6o5)ccc4OC)c3o2)cc1` [ISOGINKGETIN] are 36.16% and 63.51%.
For `Cl.O=C(O)C1=CCNCC1` [ISOGUVACINE HYDROCHLORIDE], the residual activity in series [1] is recorded as 113.5%; in series [2], 103.5%.
On to `C=C1CCC2C(CC2(C)C)C(=O)CCC1O` (stereo not drawn) [ISOKOBUSONE], for which the residual activity was found to be 93.72% in series [1] and 82.48% in series [2].
The corresponding values for `O=C(/C=C/c1ccc(O)cc1)c1ccc(O)cc1O` [ISOLIQUIRITIGENIN] are 210.9% and 119.2%.
On to `NNC(=O)c1ccncc1` [ISONIAZID], for which the residual activity in series [1] was determined as 88.4%; in series [2] it was 98.94%.
For `COc1cc(O)ccc1C(C)=O` [ISOPEONOL], the figures for the residual activity in series [1] and in series [2] were 60.41% and 84.87%, respectively.
The corresponding values for `COc1c2ccoc2c(OC)c2oc(=O)ccc12` [ISOPIMPINELLIN] are 84.51% and 29.02%.
`CC(C)[N+](C)(CCC(C(N)=O)(c1ccccc1)c1ccccc1)C(C)C.[I-]` [ISOPROPAMIDE IODIDE]: the residual activity is recorded as 83.43% in series [1] and 91.67% in series [2].
Turning to `CC(C)NCC(O)c1ccc(O)c(O)c1.Cl` (stereo not drawn) [ISOPROTERENOL HYDROCHLORIDE], the residual activity in series [1] stood at 105.2%; in series [2] it was 88.72%.
The corresponding values for `COC(=O)[C@H]1[C@H]2C[C@H]3c4[nH]c5cc(OC)ccc5c4CCN3C[C@H]2C[C@@H](OC(=O)c2cc(OC)c(OC)c(OC)c2)[C@@H]1OC` [ISORESERPINE] are 38.5% and 42.22%.
As to `COc1cc2c(cc1OC)[C@@H]1C(=O)c3ccc4oc(C(C)C)cc4c3O[C@@H]1CO2` [ISOROTENONE], the residual activity in series [1] stood at 78.62%; in series [2], 87.44%.
For `C/C=C/c1ccc2c(c1)OCO2` [ISOSAFROLE] the same measures were 75.01% and 79.83%.
`O=[N+]([O-])O[C@H]1CO[C@H]2[C@@H]1OC[C@H]2O[N+](=O)[O-]` [ISOSORBIDE DINITRATE]: the values for the residual activity in series [1] and in series [2] were 86.27% and 114.2%, respectively.

A word on the residual activity: it is the signal under treatment as a percentage of the control signal.

These data come from ChEMBL document CHEMBL3039007, “Structure-based identification of OATP1B1/3 inhibitors” (Mol Pharmacol, 2013).
